From patent US20140213538A1, “LYSOPHOSPHATIDIC ACID RECEPTOR ANTAGONISTS” (InterMune, Inc., priority 2013, published 2014)

Key:
LPA1 = LPA1 (Homo sapiens, UniProt Q92633); test: LPA1 Migration Assay (Oris); assay type: cell-based; design: host or cells: primary fibroblasts (lung, dermal), HFL-1, 3T3 and CHO cells expressing LPA1R; settings: read-out: Cell Migration EC50
Description: LPA1 Migration Assay Migration of primary fibroblasts (including lung, dermal), HFL-1, 3T3 and CHO cells expressing LPA1R were monitored using the Oris™ assay (Platypus Technologies, Madison, Wis.). These cells were dye (Cell Tracker Green™) loaded and serum starved for 12-24 hrs. In response to chemoattractants such as LPA and serum, the cells migrated inward in to the exclusion (detection) zone. After fixing, fluorescent cells in the detection zone were counted using a high content reader. The ability of LPA1 antagonists to inhibit cell migration is quantified by plotting cell number vs. compound concentration and curve fitting the resulting dose-response curve to a 4 parameter logistic function.

LPA/S1P GPCR of interest = target: T1, LPA/S1P GPCR of interest (Homo sapiens, UniProt Q92633); test: Beta-Arrestin based assay (PathHunter); assay type: cell-based
T1 construct: host or cells: CHO
Outline: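 EA Parental CHO cells (DiscoverX) were transfected with FuGENE (Roche) using CMV promoter-driven DNA constructs encoding the LPA/S1P GPCR of interest fused to a ProLink tag. Beta-arrestin recruitment in agonist mode was assessed 24-48 hrs later with PathHunter kits. Tests ran in quadruplicate in white 384 well plates, and end point luminescence was fit to a 4 parameter logistic function.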

Sequence of LPA1 (Q92633 whole entry): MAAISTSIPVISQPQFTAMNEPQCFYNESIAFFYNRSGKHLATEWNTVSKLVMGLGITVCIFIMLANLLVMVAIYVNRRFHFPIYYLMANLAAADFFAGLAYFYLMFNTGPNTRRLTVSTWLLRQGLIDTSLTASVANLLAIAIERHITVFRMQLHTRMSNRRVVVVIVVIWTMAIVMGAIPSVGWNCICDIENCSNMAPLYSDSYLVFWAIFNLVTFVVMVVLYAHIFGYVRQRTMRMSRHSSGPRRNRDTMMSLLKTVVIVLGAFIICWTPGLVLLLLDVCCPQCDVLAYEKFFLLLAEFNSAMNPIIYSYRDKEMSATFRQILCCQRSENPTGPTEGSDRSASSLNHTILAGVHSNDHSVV
T1 sequence (Q92633 whole entry): as above

SMILES	EC50 (LPA1) [nM]	EC50 (LPA/S1P GPCR of interest) [nM]
C[C@@H](OC(=O)Nc1c(C#Cc2ccc3cc(C4(C(=O)O)CC4)ccc3c2)cnn1C)c1ccccc1 [IT014]	50 to 500	
C[C@@H](OC(=O)Nc1c(-c2cc(F)c(-c3ccc(C4(C(=O)O)CC4)cc3)cc2F)oc2ccccc12)c1ccccc1 [IT075]	50 to 500	
C[C@@H](OC(=O)N(C)c1c(C#Cc2cc3sc(C4(C(=O)O)CC4)cc3s2)cnn1C)c1ccccc1 [IT097]	> 500	
C[C@@H](OC(=O)Nc1c(-c2ccc(-c3cc4sc(C5(C(=O)O)CC5)cc4s3)cc2)cnn1C)c1ccccc1 [IT056]	50 to 500	
C[C@@H](OC(=O)Nc1c(-c2cc(F)c(-c3cc4sc(C5(C(=O)O)CC5)cc4s3)cc2F)nnn1C)c1ccccc1 [IT071]	50 to 500	
C[C@@H](OC(=O)Nc1c(-c2ccc(-c3cc4sc(C5(C(=O)O)CC5)cc4s3)cc2)nnn1C)c1ccccc1 [IT050]	50 to 500	
Cc1nsc(-c2cc(F)c(-c3ccc(C4(C(=O)O)CCOCC4)cc3)cc2F)c1NC(=O)O[C@H](C)c1ccccc1 [IT042]	50 to 500	
C[C@@H](OC(=O)Nc1c(CCc2cc3sc(C4(C(=O)O)CC4)cc3s2)cnn1C)c1ccccc1 [IT099]	> 500	
C[C@@H](OC(=O)Nc1c(-c2ccc(-c3ccc(C4(C(=O)O)CC4)cc3)cc2)nn2cccnc12)c1ccccc1 [IT052]	> 500	
CCn1ncc(C#Cc2ccc3cc(C4(C(=O)O)CC4)ccc3c2)c1NC(=O)O[C@H](C)c1ccccc1 [IT016]	50 to 500	
CC(C)OC(=O)C1(c2cc3sc(C#Cc4cnn(C)c4NC(=O)O[C@H](C)c4ccccc4)cc3s2)CC1 [IT086]	> 500	
CCOC(=O)C1(c2cc3sc(C#Cc4cnn(C)c4NC(=O)O[C@H](C)c4ccccc4)cc3s2)CC1 [IT085]	> 500	
C[C@@H](OC(=O)Nc1c(-c2cc3sc(-c4ccc5c(CC(=O)O)c[nH]c5c4)cc3s2)cnn1C)c1ccccc1 [IT377]		> 500
C[C@@H](OC(=O)Nc1c(-c2cc3sc(-c4ccc(CC(=O)O)c5ccccc45)cc3s2)nnn1C)c1ccccc1 [IT318]		> 500
Cc1nsc(-c2ccc(-c3ncc(C4(C(=O)O)CC4)s3)cc2)c1NC(=O)O[C@H](C)c1ccccc1 [IT210]		> 500
C[C@@H](OC(=O)Nc1c(-c2cc3sc(-c4cc(F)c(CC(=O)O)cc4F)cc3s2)cnn1C)c1ccccc1 [IT327]		50 to 500

SMILES	EC50 (LPA1) [nM]	EC50 (LPA/S1P GPCR of interest) [nM]
Cc1nsc(-c2ccc(-c3cc4sc(C5(C(=O)O)CC5)cc4s3)cc2)c1NC(=O)O[C@H](C)c1ccccc1 [IT046]	50 to 500	
COc1cc(C2(C(=O)O)CC2)ccc1-c1cc2sc(-c3cnn(C)c3NC(=O)O[C@H](C)c3ccccc3)cc2s1 [IT264]		50 to 500
CC(C)[C@@H](NC(=O)C#Cc1ccc(-c2cnn(C)c2NC(=O)O[C@H](C)c2ccccc2)cc1)C(=O)O [IT403]		> 500
Cc1nnn(-c2cc(F)c(-c3cc4sc(C5(C(=O)O)CC5)cc4s3)cc2F)c1NC(=O)O[C@H](C)c1ccccc1 [IT067]	> 500	
Cc1noc(-c2ccc(-c3ccc(Oc4ccc(C(=O)O)cc4)cc3)cc2)c1NC(=O)O[C@H](C)c1ccccc1 [IT368]		> 500
C[C@@H](OC(=O)Nc1c(C2CCC(c3ccc(C4(C(=O)O)CC4)cc3)CC2)cnn1C)c1ccccc1 (some centres unmarked) [IT066]	> 500	
C[C@@H](OC(=O)Nc1c(-c2cc3sc(-c4ccc5occ(C6(C(=O)O)CC6)c5c4)cc3s2)cnn1C)c1ccccc1 [IT334]		> 500
Cc1nsc(-c2cc3sc(-c4ccc5[nH]cc(CC(=O)O)c5c4)cc3s2)c1NC(=O)O[C@H](C)c1ccccc1 [IT283]		> 500
C[C@@H](OC(=O)Nc1c(-c2cc3sc(-c4ccc(CC(=O)O)c(F)c4F)cc3s2)cnn1C)c1ccccc1 [IT211]		50 to 500
Cc1nsc(-c2cc3sc(-c4ccc(C5(C(=O)O)CC5)c5ccccc45)cc3s2)c1NC(=O)O[C@H](C)c1ccccc1 [IT322]		> 500
C[C@@H](OC(=O)Nc1c(C#Cc2ccc3cc(C4(C(=O)O)CC4)ccc3c2)nnn1C)c1ccccc1 [IT064]	50 to 500	
Cc1noc(-c2ccc3c(c2)CCCc2cc(CC(=O)O)ccc2-3)c1NC(=O)O[C@H](C)c1ccccc1 [IT280]		< 50
C[C@@H](OC(=O)Nc1c(-c2cc3sc(-c4ccc5scc(CC(=O)O)c5c4)cc3s2)cnn1C)c1ccccc1 [IT353]		50 to 500
Cc1cc(-c2cc3sc(-c4nnn(C)c4NC(=O)O[C@H](C)c4ccccc4)cc3s2)c(F)cc1C1(C(=O)O)CC1 [IT340]		50 to 500
C[C@@H](OC(=O)Nc1c(-c2ccc(C#CC(=O)Nc3ccc(C(=O)O)cc3)cc2)cnn1C)c1ccccc1 [IT431]		> 500
Cc1nsc(-c2cc3sc(-c4ccc(C5(C(=O)O)CC5)cc4F)cc3s2)c1NC(=O)O[C@H](C)c1ccccc1 [IT244]		< 50
